Measurements from the NIST ThermoML archive (doi:10.1016/j.tca.2015.01.012).
Several values for one entry are separate records, joined by “and”; a condition that tells them apart may be missing. Equal values may be shown once.

Assay: molar heat capacity at constant pressure
Conditions: 101.33 kPa, Crystal, Small (less than 1 g) adiabatic calorimetry

O=C(O)c1cccnc1 [3-carboxylpyridine]
Conditions	molar heat capacity at constant pressure
1 K	0.0015 J/K/mol
2 K	0.0121 J/K/mol
3 K	0.0409 J/K/mol
4 K	0.0968 J/K/mol
5 K	0.1891 J/K/mol
5.3 K	0.2521 J/K/mol
5.53 K	0.2833 J/K/mol
5.71 K	0.3119 J/K/mol
5.9 K	0.3323 J/K/mol
6 K	0.3359 J/K/mol
6.07 K	0.3625 J/K/mol
6.23 K	0.3927 J/K/mol
6.39 K	0.3921 J/K/mol
6.55 K	0.4232 J/K/mol
6.7 K	0.4579 J/K/mol
6.86 K	0.5025 J/K/mol
7 K	0.5397 J/K/mol
7.03 K	0.5557 J/K/mol
7.19 K	0.5983 J/K/mol
7.36 K	0.6211 J/K/mol
7.52 K	0.6706 J/K/mol
7.69 K	0.6993 J/K/mol
7.84 K	0.7188 J/K/mol
8 K	0.7924 J/K/mol and 0.8151 J/K/mol
8.17 K	0.8389 J/K/mol
8.34 K	0.8744 J/K/mol
8.51 K	0.9394 J/K/mol
8.68 K	1.001 J/K/mol
8.86 K	1.063 J/K/mol
9 K	1.099 J/K/mol
9.03 K	1.093 J/K/mol
9.21 K	1.135 J/K/mol
9.38 K	1.246 J/K/mol
9.56 K	1.315 J/K/mol
9.73 K	1.428 J/K/mol
9.92 K	1.479 J/K/mol
10 K	1.48 J/K/mol
10.17 K	1.542 J/K/mol
10.5 K	1.674 J/K/mol
10.82 K	1.86 J/K/mol
11.15 K	2.012 J/K/mol
11.48 K	2.15 J/K/mol
11.83 K	2.356 J/K/mol
12.19 K	2.553 J/K/mol
12.55 K	2.742 J/K/mol
12.92 K	2.969 J/K/mol
13.29 K	3.19 J/K/mol
13.67 K	3.425 J/K/mol
14.06 K	3.628 J/K/mol
14.45 K	3.87 J/K/mol
14.84 K	4.121 J/K/mol
15 K	4.221 J/K/mol
15.23 K	4.365 J/K/mol
15.63 K	4.629 J/K/mol
16.04 K	4.894 J/K/mol
16.44 K	5.19 J/K/mol
16.85 K	5.494 J/K/mol
17.27 K	5.794 J/K/mol
17.67 K	6.094 J/K/mol
18.09 K	6.421 J/K/mol
18.52 K	6.77 J/K/mol
18.95 K	7.125 J/K/mol
19.38 K	7.466 J/K/mol
19.82 K	7.809 J/K/mol
20 K	7.998 J/K/mol
20.68 K	8.601 J/K/mol
22 K	9.701 J/K/mol
23.36 K	10.88 J/K/mol
24.74 K	12.09 J/K/mol
25 K	12.34 J/K/mol
26.14 K	13.4 J/K/mol
27.57 K	14.79 J/K/mol
29.02 K	16.15 J/K/mol
30 K	17.11 J/K/mol
30.49 K	17.6 J/K/mol
31.97 K	18.99 J/K/mol
33.48 K	20.37 J/K/mol
34.99 K	21.77 J/K/mol
35 K	21.76 J/K/mol
36.53 K	23.11 J/K/mol
38.07 K	24.44 J/K/mol
39.63 K	25.75 J/K/mol
40 K	26.08 J/K/mol
41.2 K	27.05 J/K/mol
42.78 K	28.38 J/K/mol
44.36 K	29.6 J/K/mol
45 K	30.14 J/K/mol
45.95 K	30.92 J/K/mol
47.56 K	32.14 J/K/mol
49.17 K	33.43 J/K/mol
50 K	33.99 J/K/mol
50.79 K	34.59 J/K/mol
52.41 K	35.8 J/K/mol
54.04 K	36.96 J/K/mol
55.68 K	38.11 J/K/mol
57.33 K	39.19 J/K/mol
58.97 K	40.29 J/K/mol
60 K	40.99 J/K/mol
60.63 K	41.38 J/K/mol
62.28 K	42.42 J/K/mol
63.94 K	43.46 J/K/mol
65.61 K	44.41 J/K/mol
67.28 K	45.36 J/K/mol
68.95 K	46.38 J/K/mol
70 K	47 J/K/mol
70.62 K	47.37 J/K/mol
72.71 K	48.52 J/K/mol
75.22 K	49.8 J/K/mol
77.73 K	51.14 J/K/mol
80 K	52.23 J/K/mol
80.25 K	52.35 J/K/mol
80.98 K	52.79 J/K/mol
82.78 K	53.53 J/K/mol
84.21 K	54.31 J/K/mol
85.31 K	54.74 J/K/mol
86.73 K	55.5 J/K/mol
87.85 K	55.91 J/K/mol
89.25 K	56.68 J/K/mol
90 K	56.95 J/K/mol
90.39 K	57.08 J/K/mol
91.78 K	57.81 J/K/mol
94.31 K	59 J/K/mol
96.84 K	60.11 J/K/mol
99.38 K	61.16 J/K/mol
100 K	61.37 J/K/mol
101.92 K	62.18 J/K/mol
104.47 K	63.23 J/K/mol
107.02 K	64.34 J/K/mol
109.57 K	65.35 J/K/mol
110 K	65.59 J/K/mol
112.12 K	66.36 J/K/mol
114.68 K	67.47 J/K/mol
117.24 K	68.52 J/K/mol
119.81 K	69.55 J/K/mol
120 K	69.67 J/K/mol
122.39 K	70.55 J/K/mol
124.96 K	71.54 J/K/mol
127.53 K	72.56 J/K/mol
130 K	73.64 J/K/mol
130.1 K	73.62 J/K/mol
132.68 K	74.7 J/K/mol
135.26 K	75.71 J/K/mol
137.83 K	76.72 J/K/mol
140 K	77.53 J/K/mol
140.41 K	77.7 J/K/mol
142.99 K	78.8 J/K/mol
145.58 K	79.79 J/K/mol
148.16 K	80.74 J/K/mol
150 K	81.39 J/K/mol
150.75 K	81.72 J/K/mol
153.33 K	82.67 J/K/mol
155.92 K	83.7 J/K/mol
158.51 K	84.71 J/K/mol
160 K	85.26 J/K/mol
161.1 K	85.73 J/K/mol
163.71 K	86.79 J/K/mol
166.31 K	87.79 J/K/mol
168.9 K	88.81 J/K/mol
170 K	89.19 J/K/mol
171.49 K	89.87 J/K/mol
174.09 K	90.88 J/K/mol
176.68 K	91.97 J/K/mol
179.28 K	92.85 J/K/mol
180 K	93.23 J/K/mol
181.87 K	93.96 J/K/mol
184.47 K	95.03 J/K/mol
187.07 K	96.11 J/K/mol
189.66 K	97.14 J/K/mol
190 K	97.4 J/K/mol
192.26 K	98.33 J/K/mol
194.86 K	99.43 J/K/mol
197.45 K	100.6 J/K/mol
200 K	101.7 J/K/mol
200.05 K	101.7 J/K/mol
202.65 K	102.8 J/K/mol
205.28 K	104.1 J/K/mol
207.88 K	105.2 J/K/mol
210 K	106.3 J/K/mol
210.48 K	106.4 J/K/mol
213.09 K	107.6 J/K/mol
215.69 K	109 J/K/mol
218.3 K	110 J/K/mol
220 K	110.9 J/K/mol
220.91 K	111.3 J/K/mol
223.52 K	112.6 J/K/mol
226.13 K	113.8 J/K/mol
228.74 K	115.2 J/K/mol
230 K	115.8 J/K/mol
231.36 K	116.7 J/K/mol
233.98 K	117.7 J/K/mol
236.59 K	119.1 J/K/mol
239.21 K	120.4 J/K/mol
240 K	120.8 J/K/mol
241.83 K	121.8 J/K/mol
244.45 K	123.1 J/K/mol
247.11 K	124.5 J/K/mol
249.74 K	125.8 J/K/mol
250 K	125.8 J/K/mol
252.36 K	127.1 J/K/mol
254.98 K	128.5 J/K/mol
257.61 K	129.8 J/K/mol
260 K	131 J/K/mol
260.24 K	131.1 J/K/mol
262.86 K	132.5 J/K/mol
265.49 K	134 J/K/mol
268.12 K	135.3 J/K/mol
270 K	136.3 J/K/mol
270.75 K	136.7 J/K/mol
273.15 K	137.9 J/K/mol
273.38 K	138.2 J/K/mol
276.01 K	139.3 J/K/mol
278.63 K	140.8 J/K/mol
280 K	141.6 J/K/mol
281.26 K	142.3 J/K/mol
283.88 K	143.5 J/K/mol
286.5 K	144.8 J/K/mol
289.15 K	146.5 J/K/mol
290 K	146.9 J/K/mol
291.77 K	147.8 J/K/mol
294.38 K	149.3 J/K/mol
296.99 K	150.7 J/K/mol
298.15 K	151.3 J/K/mol
299.59 K	152.1 J/K/mol
300 K	152.3 J/K/mol
302.64 K	153.7 J/K/mol
306.07 K	155.5 J/K/mol
309.49 K	157.1 J/K/mol
310 K	157.7 J/K/mol
312.9 K	159 J/K/mol
316.3 K	161.2 J/K/mol
319.71 K	162.9 J/K/mol
320 K	163.1 J/K/mol
323.11 K	164.8 J/K/mol
326.5 K	166.8 J/K/mol
329.88 K	168.6 J/K/mol
330 K	168.5 J/K/mol
333.26 K	170.6 J/K/mol
336.64 K	172.4 J/K/mol
340 K	174 J/K/mol
343.36 K	175.7 J/K/mol
346 K	177.3 J/K/mol
346.71 K	177.4 J/K/mol
